Laboratory results published in PMC12162337, “Vitexicarpin suppresses colorectal and non-small cell lung cancer via selective inhibition of Anoctamin 1” (Frontiers in Pharmacology, 2025).

How the values were obtained:
Assay type in all cases: cell-based
[1] = target: T1, CFTR (Homo sapiens, UniProt P13569); test: short-circuit current (Ussing chamber), forskolin-activated; complete block at […]
T1 construct: CFTR-expressing FRT cells

[2] = target: T2, Anoctamin 1 (ANO1, TMEM16A) (Homo sapiens, UniProt Q5XXA6); test: YFP iodide-influx quenching assay and short-circuit current (Ussing chamber)
T2 construct: endogenous ANO1 in PC9-YFP cells; ANO1-expressing FRT cells
T2 sequence (Q5XXA6 1-986): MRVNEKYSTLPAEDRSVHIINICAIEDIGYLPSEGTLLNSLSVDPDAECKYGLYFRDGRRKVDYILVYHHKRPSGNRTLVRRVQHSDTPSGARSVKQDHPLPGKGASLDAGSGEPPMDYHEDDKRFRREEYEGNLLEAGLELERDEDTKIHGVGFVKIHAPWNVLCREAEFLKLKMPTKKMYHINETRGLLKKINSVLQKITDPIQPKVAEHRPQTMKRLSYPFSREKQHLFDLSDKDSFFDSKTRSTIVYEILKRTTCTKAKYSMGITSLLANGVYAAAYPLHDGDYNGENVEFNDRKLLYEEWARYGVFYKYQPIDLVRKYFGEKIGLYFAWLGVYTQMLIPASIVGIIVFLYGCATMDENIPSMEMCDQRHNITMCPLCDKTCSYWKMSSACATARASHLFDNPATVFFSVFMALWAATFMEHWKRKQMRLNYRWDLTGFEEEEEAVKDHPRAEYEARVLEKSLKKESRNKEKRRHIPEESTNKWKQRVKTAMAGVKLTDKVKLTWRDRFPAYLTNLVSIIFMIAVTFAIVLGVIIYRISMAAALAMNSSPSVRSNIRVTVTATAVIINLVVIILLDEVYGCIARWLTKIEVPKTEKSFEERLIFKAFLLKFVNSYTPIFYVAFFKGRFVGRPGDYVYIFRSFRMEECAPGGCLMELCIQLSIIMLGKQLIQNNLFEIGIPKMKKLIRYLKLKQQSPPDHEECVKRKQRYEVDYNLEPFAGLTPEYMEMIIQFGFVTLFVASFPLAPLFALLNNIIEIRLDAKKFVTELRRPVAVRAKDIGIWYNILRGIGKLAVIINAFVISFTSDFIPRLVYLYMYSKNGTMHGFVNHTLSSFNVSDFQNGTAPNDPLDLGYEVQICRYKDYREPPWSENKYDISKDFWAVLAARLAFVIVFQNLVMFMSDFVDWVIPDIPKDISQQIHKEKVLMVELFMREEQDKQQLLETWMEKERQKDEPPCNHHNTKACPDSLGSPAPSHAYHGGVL

[3] = target: T3, hERG channel (Homo sapiens, UniProt Q12809); test: automated patch clamp (PatchLiner), hERG tail current
T3 construct: gene KCNH2; hERG-overexpressing HEK cells
T3 sequence (Q12809 whole entry): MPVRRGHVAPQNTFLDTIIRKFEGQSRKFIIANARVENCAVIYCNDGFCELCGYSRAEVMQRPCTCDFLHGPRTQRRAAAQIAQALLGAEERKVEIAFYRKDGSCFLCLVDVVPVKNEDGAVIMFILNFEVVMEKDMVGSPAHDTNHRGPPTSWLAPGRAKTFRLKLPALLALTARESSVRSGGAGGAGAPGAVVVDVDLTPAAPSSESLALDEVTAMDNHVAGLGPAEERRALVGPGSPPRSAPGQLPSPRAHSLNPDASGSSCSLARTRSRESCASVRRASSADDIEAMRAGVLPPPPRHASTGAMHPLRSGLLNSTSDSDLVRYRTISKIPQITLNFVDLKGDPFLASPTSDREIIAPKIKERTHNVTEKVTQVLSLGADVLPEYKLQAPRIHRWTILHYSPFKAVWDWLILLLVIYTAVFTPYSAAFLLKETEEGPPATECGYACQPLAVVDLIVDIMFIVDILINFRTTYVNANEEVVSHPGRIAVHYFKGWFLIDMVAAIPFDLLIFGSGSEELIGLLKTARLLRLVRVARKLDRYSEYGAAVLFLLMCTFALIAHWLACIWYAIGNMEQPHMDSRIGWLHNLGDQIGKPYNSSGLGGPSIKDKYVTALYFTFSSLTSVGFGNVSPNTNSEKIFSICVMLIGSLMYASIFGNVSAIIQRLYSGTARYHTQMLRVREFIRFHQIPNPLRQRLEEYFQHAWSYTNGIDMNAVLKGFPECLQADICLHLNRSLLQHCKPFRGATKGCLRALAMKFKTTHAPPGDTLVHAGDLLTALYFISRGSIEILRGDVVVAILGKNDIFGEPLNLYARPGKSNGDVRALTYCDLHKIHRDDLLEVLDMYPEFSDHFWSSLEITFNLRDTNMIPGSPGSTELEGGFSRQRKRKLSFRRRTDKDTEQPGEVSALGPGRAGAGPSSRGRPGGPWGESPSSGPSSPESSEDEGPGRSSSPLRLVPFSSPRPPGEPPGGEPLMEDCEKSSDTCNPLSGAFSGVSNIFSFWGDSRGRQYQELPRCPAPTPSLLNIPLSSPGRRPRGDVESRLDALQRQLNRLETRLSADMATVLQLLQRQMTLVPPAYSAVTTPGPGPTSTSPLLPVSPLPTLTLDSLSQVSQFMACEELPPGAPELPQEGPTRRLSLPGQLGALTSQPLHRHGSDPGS

T1 sequence (P13569 whole entry): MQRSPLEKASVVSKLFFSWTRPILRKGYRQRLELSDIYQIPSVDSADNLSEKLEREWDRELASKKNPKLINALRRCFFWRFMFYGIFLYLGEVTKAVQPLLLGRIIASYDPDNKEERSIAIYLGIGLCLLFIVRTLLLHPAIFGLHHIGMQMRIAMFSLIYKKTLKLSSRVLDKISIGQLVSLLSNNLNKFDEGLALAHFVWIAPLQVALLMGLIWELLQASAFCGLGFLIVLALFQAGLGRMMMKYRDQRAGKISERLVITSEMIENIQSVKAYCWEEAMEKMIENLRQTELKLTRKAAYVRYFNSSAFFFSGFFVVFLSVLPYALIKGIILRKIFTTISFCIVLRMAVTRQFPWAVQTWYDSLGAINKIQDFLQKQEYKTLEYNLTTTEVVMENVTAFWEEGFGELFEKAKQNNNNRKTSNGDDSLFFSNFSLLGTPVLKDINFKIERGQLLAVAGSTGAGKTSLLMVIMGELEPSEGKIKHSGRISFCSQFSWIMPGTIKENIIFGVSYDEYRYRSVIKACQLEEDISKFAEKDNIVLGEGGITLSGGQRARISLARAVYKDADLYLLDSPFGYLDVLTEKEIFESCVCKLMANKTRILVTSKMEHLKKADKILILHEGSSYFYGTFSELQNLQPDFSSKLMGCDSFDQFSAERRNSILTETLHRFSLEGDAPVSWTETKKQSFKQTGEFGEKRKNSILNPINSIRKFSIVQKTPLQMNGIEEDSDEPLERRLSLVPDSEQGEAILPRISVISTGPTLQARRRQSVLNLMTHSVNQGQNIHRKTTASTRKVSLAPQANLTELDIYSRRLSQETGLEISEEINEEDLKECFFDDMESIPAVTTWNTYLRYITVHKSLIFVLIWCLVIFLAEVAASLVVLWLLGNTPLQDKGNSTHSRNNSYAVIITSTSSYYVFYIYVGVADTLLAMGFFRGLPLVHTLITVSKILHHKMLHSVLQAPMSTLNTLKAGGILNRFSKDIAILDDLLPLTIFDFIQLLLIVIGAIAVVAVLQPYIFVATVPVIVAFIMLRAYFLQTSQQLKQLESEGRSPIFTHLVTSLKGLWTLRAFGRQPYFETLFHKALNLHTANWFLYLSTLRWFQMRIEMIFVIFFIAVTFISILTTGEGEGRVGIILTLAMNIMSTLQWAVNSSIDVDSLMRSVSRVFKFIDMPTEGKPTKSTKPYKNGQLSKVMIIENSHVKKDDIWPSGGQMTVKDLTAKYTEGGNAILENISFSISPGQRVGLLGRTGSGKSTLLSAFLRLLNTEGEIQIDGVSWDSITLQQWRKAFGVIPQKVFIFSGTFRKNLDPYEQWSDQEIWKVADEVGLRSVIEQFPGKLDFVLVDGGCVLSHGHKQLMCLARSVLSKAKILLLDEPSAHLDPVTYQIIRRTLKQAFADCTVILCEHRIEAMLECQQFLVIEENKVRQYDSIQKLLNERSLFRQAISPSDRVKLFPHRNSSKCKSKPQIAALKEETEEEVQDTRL

Row | short-circuit current (Ussing chamber), forskolin-activated; complete block at 1 [1] | SMILES | YFP iodide-influx quenching assay and short-circuit current (Ussing chamber) [2] | IC50 [3]
1 | 10 µM | O=C(O)c1ccc(/C=C2\SC(=S)N(c3cccc(C(F)(F)F)c3)C2=O)cc1 [CFTRinh-172] |  | 
2 |  | COc1ccc(-c2oc3cc(OC)c(OC)c(O)c3c(=O)c2OC)cc1O [vitexicarpin, 3′,5-dihydroxy-3,4′,6,7-tetramethoxyflavone] | vitexicarpin inhibited ANO1 activation in a dose-dependent manner (Figure 2A) | 35.4 µM
